Reference: patent US7381736B2, “Thiazole and thiadiazole inhibitors of tyrosine phosphatases” (Metabasis Therapeutics, Inc., priority 2004, dated 2008)

Key:
FAO rat hepatoma cells = assay: Cell based assays (IR phosphorylation assays); settings: prodrug vs parent carboxylic-phosphonic acid
Text: Antibodies and Chemicals. The antibody against phosphorylated insulin receptor (pIR) and the ELISA kit for detection of pIR were from Biosource (Camarillo, Calif.). Rabbit anti-IR/IGF-1R [pYpY1162/1163] phosphospecific antibody recognizes both the insulin receptor (IR) and the insulin-like growth factor-1 receptor (IGF-1R) phosphorylated at the active site tyrosine residues, 1162 and 1163 (1135 and 1136 for IGF-1R) (pIR/pIGF-1R). The Insulin Receptor [pYpY1162/1163] […] HRP-conjugated secondary antibodies were from Cell Signaling Technology (Beverly, Mass.). The ECL detection system was from Amersham (Buckinghamshire, UK), and human insulin was from Invitrogen (Carlsbad, Calif.).
Tissue Culture. FAO rat hepatoma cells were obtained from ECACC (#89042701) and maintained at 37° C. in a 5% CO2 environment in Dulbecco's modified Eagle's medium with high glucose (DMEM-high glucose) (4500 mg/liter) supplemented with 10% FBS and 50 units/ml penicillin, 100 µg/ml streptomycin and 0.292 mg/ml L-glutamine. For assays, cells were seeded in 24-well plates at a density of 2×10^5 cells/well and maintained until they reached confluency (about 3 days).
IR phosphorylation assays. Cells in 24-well plates were serum starved overnight in DMEM-low glucose (1000 mg/liter) without serum. […] The pIR/pIGF-1R signals were scanned (HP scanjet 3570c) and quantified (Scion Image). […]

| Structure (SMILES) | melting point | increase in activity in a cell-based assay as compared to the parent carboxylic-phosphonic acid (FAO rat hepatoma cells) |
| --- | --- | --- |
| COC(=O)c1cccc(Oc2cccc(-c3nn(Cc4ccc(C(F)(F)P(=O)(O)O)c(Cl)c4)c(=Nc4ccc(Cl)c(Cl)c4)s3)c2)c1 [Example 9, 3-{3-[4-[3-Chloro-4-(difluoro-phosphono-methyl)-benzyl]-5-(3,4-dichloro-phenylimino)-4,5-dihydro-[1,3,4]thiadiazol-2-yl]-phenoxy}-benzoic acid methyl ester] | 137 to 139 °C | – |
| COC(=O)c1cccc(Oc2cccc(-c3nn(Cc4ccc(C(F)(F)P(=O)(O)O)c(F)c4)c(=Nc4ccc(Cl)c(Cl)c4)s3)c2)c1 [Example 11, 3-(3-{5-(3,4-Dichloro-phenylimino)-4-[4-(difluoro-phosphono-methyl)-3-fluoro-benzyl]-4,5-dihydro-[1,3,4]thiadiazol-2-yl}-phenoxy)-benzoic acid methyl ester] | 137 to 139 °C | – |
| O=C(O)c1cccc(Oc2cccc(-c3nn(Cc4ccc(C(F)(F)P(=O)(O)O)c(F)c4)c(=Nc4ccc(Cl)c(Cl)c4)s3)c2)c1 [Example 10, 3-(3-{5-(3,4-Dichloro-phenylimino)-4-[4-(difluoro-phosphono-methyl)-3-fluoro-benzyl]-4,5-dihydro-[1,3,4]thiadiazol-2-yl}-phenoxy)-benzoic acid] | 153 to 156 °C | – |
| O=C(O)c1cccc(Oc2cccc(-c3nn(Cc4ccc(C(F)(F)P(=O)(O)O)c(Cl)c4)c(=Nc4ccc(Cl)c(Cl)c4)s3)c2)c1 [Example 8, 3-{3-[4-[3-Chloro-4-(difluoro-phosphono-methyl)-benzyl]-5-(3,4-dichloro-phenylimino)-4,5-dihydro-[1,3,4]thiadiazol-2-yl]-phenoxy}-benzoic acid] | 212 to 215 °C | – |
| COC(=O)c1cccc(Oc2cccc(-c3nnc(N(Cc4ccc(C(F)(F)P(=O)(O)O)c(Cl)c4)c4ccc(Cl)c(Cl)c4)s3)c2)c1 [Example 48, 3-(3-{5-[[3-Chloro-4-(difluoro-phosphono-methyl)-benzyl]-(3,4-dichloro-phenyl)-amino]-[1,3,4]thiadiazol-2-yl}-phenoxy)-benzoic acid methyl ester] | 73 to 76 °C | – |
| CC(C)(C)C(=O)OCOC(=O)c1ccc(-c2csc(NCc3ccc(C(F)(F)P(=O)(O)OCOC(=O)C(C)(C)C)c(Br)c3)n2)cc1 [4-[2-(3-Bromo-4-{[(2,2-dimethyl-propionyloxymethoxy)-hydroxy-phosphoryl]-difluoro-methyl}-benzylamino)-thiazol-4-yl]-benzoic acid 2,2-dimethyl-propionyloxymethyl ester] | – | ~10 fold |
| O=C(O)c1cccc(Oc2cccc(-c3nnc(N(Cc4ccc(C(F)(F)P(=O)(O)O)c(Cl)c4)c4ccc(Cl)c(Cl)c4)s3)c2)c1 [Example 46, 3-(3-{5-[[3-Chloro-4-(difluoro-phosphono-methyl)-benzyl]-(3,4-dichloro-phenyl)-amino]-[1,3,4]thiadiazol-2-yl}-phenoxy)-benzoic acid] | 178 to 180 °C | – |
